Measured values reported in ChEMBL document CHEMBL1143820, “Mutations in 16S rRNA and ribosomal protein S5 associated with high-level spectinomycin resistance in Pasteurella multocida” (2007).
Values after ≈ are worked out from the molar mass of the structure shown.

Columns and labels:
Type in all cases: functional
Pasteurella multocida [1] = assay: Antibacterial activity against Pasteurella multocida isolate 8 with operon A,B,C,D,E 16S rRNA C1192G transversion mutation by CLSI M31-A2 method
Pasteurella multocida [2] = assay: Antibacterial activity against Pasteurella multocida isolate 9 with operon B,C 16S rRNA C1192G transversion mutation and S5 protein 32-SF-33>32I mutation by CLSI M31-A2 method
Pasteurella multocida [3] = assay: Antibacterial activity against Pasteurella multocida isolate 10 with operon B,C 16S rRNA C1192G transversion mutation and S5 protein 32-SF-33>32I mutation by CLSI M31-A2 method
Pasteurella multocida [4] = assay: Antibacterial activity against Pasteurella multocida isolate 11 with operon B,C 16S rRNA C1192G transversion mutation and S5 protein 32-SF-33>32I mutation by CLSI M31-A2 method
Pasteurella multocida [5] = assay: Antibacterial activity against Pasteurella multocida isolate 1 with operon A,B,C,D,E,F 16S rRNA C1192G transversion mutation by CLSI M31-A2 method
Pasteurella multocida [6] = assay: Antibacterial activity against Pasteurella multocida isolate 2 with operon A,B,C,D,E,F 16S rRNA C1192G transversion mutation by CLSI M31-A2 method
Pasteurella multocida [7] = assay: Antibacterial activity against Pasteurella multocida isolate 3 with operon A,B,C,D,E,F 16S rRNA C1192G transversion mutation by CLSI M31-A2 method
Pasteurella multocida [8] = assay: Antibacterial activity against Pasteurella multocida isolate 4 with operon A,B,C,D,E,F 16S rRNA C1192G transversion mutation by CLSI M31-A2 method
Pasteurella multocida [9] = assay: Antibacterial activity against Pasteurella multocida isolate 5 with operon A,B,C,D,E,F 16S rRNA C1192G transversion mutation by CLSI M31-A2 method
Pasteurella multocida [10] = assay: Antibacterial activity against Pasteurella multocida isolate 6 with operon A,B,C,D,E 16S rRNA C1192G transversion mutation by CLSI M31-A2 method
Pasteurella multocida [11] = assay: Antibacterial activity against Pasteurella multocida isolate 7 with operon A,B,C,D,E 16S rRNA C1192G transversion mutation by CLSI M31-A2 method
Pasteurella multocida [12] = assay: Antibacterial activity against Pasteurella multocida isolate 12 with operon B,C 16S rRNA C1192G transversion mutation and S5 protein 32-SF-33>32I mutation by CLSI M31-A2 method
Pasteurella multocida [13] = assay: Antibacterial activity against Pasteurella multocida isolate 13 with loss of 23K in S5 protein by CLSI M31-A2 method
Pasteurella multocida [14] = assay: Antibacterial activity against Pasteurella multocida isolate 14 by CLSI M31-A2 method
Pasteurella multocida [15] = assay: Antibacterial activity against Pasteurella multocida isolate 15 by CLSI M31-A2 method
Pasteurella multocida [16] = assay: Antibacterial activity against Pasteurella multocida isolate 16 by CLSI M31-A2 method
Pasteurella multocida [17] = assay: Antibacterial activity against Pasteurella multocida isolate 17 by CLSI M31-A2 method

## CN[C@@H]1[C@H](O)[C@H](NC)[C@H]2O[C@@]3(O)C(=O)C[C@@H](C)O[C@H]3O[C@@H]2[C@H]1O [SPECTINOMYCIN]
Pasteurella multocida [1]
  MIC: 4100 µg/mL (≈ 12.3 mM)
Pasteurella multocida [2]
  MIC: 4100 µg/mL (≈ 12.3 mM)
Pasteurella multocida [3]
  MIC: > 8190 µg/mL
Pasteurella multocida [4]
  MIC: > 8190 µg/mL
Pasteurella multocida [5]
  MIC: > 8190 µg/mL
Pasteurella multocida [6]
  MIC: > 8190 µg/mL
Pasteurella multocida [7]
  MIC: > 8190 µg/mL
Pasteurella multocida [8]
  MIC: > 8190 µg/mL
Pasteurella multocida [9]
  MIC: > 8190 µg/mL
Pasteurella multocida [10]
  MIC: 4100 µg/mL (≈ 12.3 mM)
Pasteurella multocida [11]
  MIC: 8190 µg/mL (≈ 24.6 mM)
Pasteurella multocida [12]
  MIC: > 8190 µg/mL
Pasteurella multocida [13]
  MIC: 4100 µg/mL (≈ 12.3 mM)
Pasteurella multocida [14]
  MIC: 16 µg/mL (≈ 0.0481 mM)
Pasteurella multocida [15]
  MIC: 16 µg/mL (≈ 0.0481 mM)
Pasteurella multocida [16]
  MIC: 16 µg/mL (≈ 0.0481 mM)
Pasteurella multocida [17]
  MIC: 16 µg/mL (≈ 0.0481 mM)
